Measurements: patent US11225480B2, “Malic enzyme inhibitors” (SUN PHARMA ADVANCED RESEARCH COMPANY LTD, priority 2019, dated 2022)

What follows are compounds tested against T1, human ME3 enzyme (Homo sapiens, UniProt Q16798) (assay: ME3 inhibition assay (diaphorase/resazurin coupled fluorescence)). Details: 10 μM compound concentration; read-out: Malic Enzyme 3 % inhibition (10 μM).
T1 sequence (Q16798 1-604): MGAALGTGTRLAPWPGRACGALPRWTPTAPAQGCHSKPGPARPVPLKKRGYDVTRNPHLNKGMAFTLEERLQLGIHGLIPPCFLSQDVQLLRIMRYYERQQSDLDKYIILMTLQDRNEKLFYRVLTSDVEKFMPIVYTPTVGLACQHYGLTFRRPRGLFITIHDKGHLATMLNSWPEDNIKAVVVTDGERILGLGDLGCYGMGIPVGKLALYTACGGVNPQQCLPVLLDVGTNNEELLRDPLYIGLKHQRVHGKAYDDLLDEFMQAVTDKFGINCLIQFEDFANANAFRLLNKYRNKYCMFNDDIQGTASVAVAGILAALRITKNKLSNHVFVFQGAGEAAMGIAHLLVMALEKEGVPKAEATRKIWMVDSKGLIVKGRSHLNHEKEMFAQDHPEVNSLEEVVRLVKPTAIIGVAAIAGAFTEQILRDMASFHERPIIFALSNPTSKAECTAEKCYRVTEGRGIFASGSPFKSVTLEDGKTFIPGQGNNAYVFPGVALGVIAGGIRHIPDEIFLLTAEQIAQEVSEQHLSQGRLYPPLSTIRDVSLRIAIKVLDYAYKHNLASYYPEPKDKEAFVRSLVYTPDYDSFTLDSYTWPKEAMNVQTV
Format: biochemical
Experimental: ME3 catalyzes the oxidative decarboxylation of malate to pyruvate with conversion of the co-factor β-NADP+ to NADPH. In the fluorescence assay, a coupled reaction is set up wherein an enzyme, Diaphorase, utilizes NADPH generated by ME3, to convert the dye resazurin to a fluorescent molecule resorufin.
The enzyme activity inhibition assay is set up in a 200 μL final reaction volume in a 96-well plate. As per the experimental design, 2 μL of the test compounds at 100× the desired concentration (10 μM) in DMSO were added to the respective wells with 178 μL of assay buffer (50 mM Tris-HCl pH 7.5, 10 mM MnCl2, 3 mM L-malate, 50 μM Resazurin and 0.025 mg/ml Diapharose). The 96-well plate was incubated on a plate shaker at room temperature for 15 minutes protected from light. The well contents were gently mixed by adding 10 μL of 20 nM human ME3 enzyme to the wells and the plate was incubated on a shaker at room temperature for 5 minutes protected from light. Suitable enzyme only and no enzyme controls were included in the experiment. The enzyme reaction was started by adding 10 μL of 1 mM D-NADP+. The reaction was gently mixed and the plate was initially left on a shaker at room temperature for ˜7 minutes protected from light. Later, the plate was incubated without shaking at room temperature for 3 hours. At the end of 3 hours, the fluorescence of the wells was measured at excitation 540 nm and emission 600 nm.

First: O=C(Cc1ccc(O)cc1)N1CCN(c2ccc(O)cc2)CC1 [I.4, 2-(4-Hydroxy-phenyl)-1-[4-(4-hydroxy-phenyl)-piperazin-1-yl]-ethanone]
Second: O=C(O)c1cc(N2CCN(C(=O)Cc3ccccc3)CC2)ccc1O [I.32, 2-hydroxy-5-(4-phenylacetyl-piperazin-1-yl)-benzoic acid]
The inhibition at 10 µM of the first is higher: greater than 90% for the first, 70 to 89% for the second.

O=C(c1cccc(-c2cccc3[nH]ccc23)c1)N1CCN(c2ccc(O)cn2)CC1 [I.113, [4-(5-hydroxypyridin-2-yl)-piperazin-1-yl]-[3-(1H-indol-4-yl)phenyl]methanone] and O=C(c1ccnc(-c2ccccc2)c1)N1CCN(c2ccc(O)cc2)CC1 [I.34, [4-(4-Hydroxy-phenyl)-piperazin-1-yl]-(2-phenyl-4-pyridyl)-methanone] cannot be ordered by inhibition at 10 µM: greater than 90% for the first, greater than 90% for the second.

O=C(CCc1ccc(Br)cc1)N1CCN(c2ccc(O)cn2)CC1 [I.103, 3-(4-Bromo-phenyl)-1-[4-(5-hydroxy-pyridin-2-yl)-piperazin-1-yl]-propan-1-one] and Cc1ccc(CCC(=O)N2CCN(c3ccc(O)cn3)CC2)cc1 [I.110, 1-[4-(5-Hydroxy-pyridin-2-yl)-piperazin-1-yl]-3-p-tolyl-propan-1-one] cannot be ordered by inhibition at 10 µM: greater than 90% for the first, greater than 90% for the second.

COCCOc1ccc(CCC(=O)N2CCN(c3ccc(O)cn3)CC2)cc1 [I.114, 1-[4-(5-Hydroxy-pyridin-2-yl)-piperazin-1-yl]-3-[4-(2-methoxy-ethoxy)-phenyl]-propan-1-one dihydro-chloride] and COc1ccccc1CCC(=O)N1CCN(c2ccc(O)cn2)CC1 [I.109, 1-[4-(5-Hydroxy-pyridin-2-yl)-piperazin-1-yl]-3-(2-methoxy-phenyl)-propan-1-one] cannot be ordered by inhibition at 10 µM: greater than 90% for the first, greater than 90% for the second.

O=C(c1cccn2ccnc12)N1CCN(c2ccc(O)cc2)CC1 [I.29, [4-(4-Hydroxy-phenyl)-piperazin-1-yl]-imidazo[1,2-a]124yridine-8-yl-methanone] and O=C(c1n[nH]c2ccccc12)N1CCN(c2ccc(O)cc2)CC1 [I.8, [4-(4-Hydroxy-phenyl)-piperazin-1-yl]-(1H-indazol-3-yl)-methanone] cannot be ordered by inhibition at 10 µM: greater than 90% for the first, greater than 90% for the second.

CCCCOc1ccc2[nH]cc(C(=O)N3CCN(c4ccc(O)cc4)CC3)c2c1 [I.14, (5-Butoxy-1H-indol-3-yl)-[4-(4-hydroxy-phenyl)-piperazin-1-yl]-methanone] and O=C(c1cnc2ccccc2c1)N1CCN(c2ccc(O)cc2)CC1 [I.24, [4-(4-Hydroxy-phenyl)-piperazin-1-yl]-quinolin-3-yl-methanone] cannot be ordered by inhibition at 10 µM: greater than 90% for the first, greater than 90% for the second.

O=C(CCC(c1ccccc1)c1ccccc1)N1CCN(c2ccc(O)cn2)CC1 [I.112, 1-[4-(5-Hydroxy-2-pyridyl)-piperazin-1-yl]-4,4-diphenyl-butan-1-one] and O=C(CCc1ccccc1Br)N1CCN(c2ccc(O)cn2)CC1 [I.102, 3-(2-Bromo-phenyl)-1-[4-(5-hydroxy-pyridin-2-yl)-piperazin-1-yl]-propan-1-one] cannot be ordered by inhibition at 10 µM: greater than 90% for the first, greater than 90% for the second.

O=C(C1CC1)N1CCN(c2ccc(O)cn2)CC1 [I.119, Cyclopropyl-[4-(5-hydroxy-2-pyridyl)-piperazin-1-yl]methanone] and O=C(C1CCCCC1)N1CCN(c2ccc(O)cn2)CC1 [I.118, Cyclohexyl-[4-(5-hydroxy-2-pyridyl)-piperazin-1-yl]methanone] cannot be ordered by inhibition at 10 µM: greater than 90% for the first, greater than 90% for the second.

CN(CC(=O)N1CCN(c2ccc(O)cn2)CC1)S(=O)(=O)c1cccc2cccnc12 [I.89, quinoline-8-sulfonic acid {2-[4-(5-hydroxypyridin-2-yl)-piperazin-1-yl]-2-oxo-ethyl}-methylamide] and O=C(CSc1ccc([N+](=O)[O-])cn1)N1CCN(c2ccc(O)cn2)CC1 [I.97, 1-[4-(5-hydroxy-pyridin-2-yl)-piperazin-1-yl]-2-(5-nitro-pyridin-2-ylsulfanyl)-ethanone] cannot be ordered by inhibition at 10 µM: greater than 90% for the first, greater than 90% for the second.

O=C(C(=O)N1CCN(c2ccc(O)cn2)CC1)c1c[nH]c2ccccc12 [I.106, 1-[4-(5-Hydroxy-pyridin-2-yl)-piperazin-1-yl]-2-(1H-indol-3-yl)-ethane-1,2-dione] and O=C(Cc1ccc(F)cc1F)N1CCN(c2ccc(O)cn2)CC1 [I.91, 2-(2,4-Difluoro-phenyl)-1-[4-(5-hydroxy-pyridine-2-yl)-piperazin-1-yl]-ethanone] cannot be ordered by inhibition at 10 µM: greater than 90% for the first, greater than 90% for the second.

O=C(c1cc(-c2ccccc2)cc(-c2ccccc2)c1)N1CCN(c2ccc(O)cc2)CC1 [I.27, (3,5-Diphenyl-phenyl)-[4-(4-hydroxy-phenyl)-piperazin-1-yl]methanone] and O=C(c1cn(Cc2ccccc2)c2ccccc12)N1CCN(c2ccc(O)cc2)CC1 [I.15, (1-Benzyl-1H-indol-3-yl)-[4-(4-hydroxy-phenyl)-piperazin-1-yl]-methanone] cannot be ordered by inhibition at 10 µM: greater than 90% for the first, greater than 90% for the second.

O=C(c1cc(Cl)nc(N2CCOCC2)c1)N1CCN(c2ccc(O)cc2)CC1 [I.36] and O=C(C(c1ccccc1)N1CCOCC1)N1CCN(c2ccc(O)cn2)CC1 (centres unmarked) [I.117, 1-[4-(5-hydroxy-2-pyridyl)piperazin-1-yl]-2-morpholino-2-phenyl-ethanone] cannot be ordered by inhibition at 10 µM: greater than 90% for the first, greater than 90% for the second.

O=C(c1cccc2c1ccn2Cc1ccccc1)N1CCN(c2ccc(O)cc2)CC1 [I.26, (1-benzylindol-4-yl)-[4-(4-hydroxyphenyl)piperazin-1-yl]methanone] and CC(=O)N[C@@H](Cc1ccccc1)C(=O)N1CCN(c2ccc(O)cc2)CC1 [I.16, N-{(1S)-1-Benzyl-2-[4-(4-hydroxy-phenyl)-piperazin-1-yl]-2-oxoethyl}-acetamide] cannot be ordered by inhibition at 10 µM: greater than 90% for the first, greater than 90% for the second.

First: COC(=O)C1C2CCC(O2)C1C(=O)N1CCN(c2ccc(O)cn2)CC1 (centres unmarked) [I.104, 3-[4-(5-Hydroxy-pyridin-2-yl)-piperazine-1-carbonyl]-7-oxa-bicyclo-[2.2.1]heptane-2-carboxylic acid methyl ester]
Second: COCCN1CCC(C(=O)N2CCN(c3ccc(O)cc3)CC2)CC1 [I.7, [4-(4-Hydroxy-phenyl)-piperazin-1-yl]-[1-(2-methoxy-ethyl)-piperidin-4-yl]-methanone]
The inhibition at 10 µM of the first is lower: 70 to 89% for the first, greater than 90% for the second.

The compounds below were run against T2, human ME1 enzyme (Homo sapiens, UniProt P48163) (assay: ME1 inhibition assay (diaphorase/resazurin coupled fluorescence)). Details: 10 μM compound concentration; read-out: Malic Enzyme 1 % inhibition (10 μM).
T2 sequence (P48163 1-572): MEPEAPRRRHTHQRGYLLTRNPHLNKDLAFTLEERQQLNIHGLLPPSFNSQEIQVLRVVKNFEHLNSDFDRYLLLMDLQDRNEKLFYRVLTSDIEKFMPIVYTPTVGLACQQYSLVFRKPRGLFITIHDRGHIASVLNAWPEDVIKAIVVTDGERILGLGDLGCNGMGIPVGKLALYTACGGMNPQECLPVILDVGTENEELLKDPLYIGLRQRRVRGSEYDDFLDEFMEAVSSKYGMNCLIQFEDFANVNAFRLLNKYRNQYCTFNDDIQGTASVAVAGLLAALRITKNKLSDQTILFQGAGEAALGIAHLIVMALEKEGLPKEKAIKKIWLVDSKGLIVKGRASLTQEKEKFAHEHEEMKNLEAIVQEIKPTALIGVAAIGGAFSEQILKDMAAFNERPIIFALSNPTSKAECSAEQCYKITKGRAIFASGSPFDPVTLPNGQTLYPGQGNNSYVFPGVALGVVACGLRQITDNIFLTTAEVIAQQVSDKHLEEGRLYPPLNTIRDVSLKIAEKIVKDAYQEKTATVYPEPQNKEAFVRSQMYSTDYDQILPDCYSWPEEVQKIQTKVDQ
Format: biochemical
Experimental: ME1 catalyzes the oxidative decarboxylation of malate to pyruvate with conversion of the co-factor β-NADP+ to β-NADPH. In the fluorescence assay, a coupled reaction is set up where in an enzyme, Diaphorase, utilizes NADPH generated by ME1, to convert the dye resazurin to a fluorescent molecule resorufin. Resorufin has a characteristic fluorescence with excitation/emission at 540/600 nm (SLAS Discov., 2017 April 1:2472555217706649).
The enzyme activity inhibition assay is set up in a 200 μL final reaction volume in a 96-well plate. As per the experimental design, 2 μL of the compounds at 100× the desired concentration (10 μM) in DMSO were added to the respective wells with 178 μL of assay buffer (50 mM Tris-HCl pH 7.5, 10 mM MnCl2, 2 mM L-malate, 10 μM Resazurin and 0.01 mg/ml Diapharose). The 96-well plate was incubated on a plate shaker at room temperature for 15 minutes protected from light. The well contents were gently mixed by adding 10 μL of 20 nM human ME1 enzyme to the wells and the plate was incubated on a shaker at room temperature for 5 minutes protected from light. Suitable ‘enzyme only’ and ‘no enzyme’ controls were included in the experiment. The enzymatic reaction was started by adding 10 μL of 0.3 mM D-NADP+. The reaction was gently mixed and the plate was initially left on a shaker at room temperature for −7 minutes protected from light. Later, the plate was incubated without shaking at room temperature for 2 hours. At the end of 2 hours, the fluorescence of the wells was measured at excitation 540 nm and emission 600 nm. The % enzyme activity of the compounds is obtained by normalizing the data with enzyme only (100%) and no enzyme controls (0%) using GraphPad Prism software 7.04.

Work on O=C(Cc1ccc(O)cc1)N1CCN(c2ccc(O)cc2)CC1 [I.4, 2-(4-Hydroxy-phenyl)-1-[4-(4-hydroxy-phenyl)-piperazin-1-yl]-ethanone] yielded an inhibition at 10 µM greater than 90%.
